{"source": "patent US10011611B2", "about": "“Histone deacetylase inhibitors and methods for use thereof” (Reaction Biology Corp., priority 2015, dated 2018)", "key": {"[1]": {"target": "Recombinant human HDAC6 (Homo sapiens (Human), UniProt Q9UBN7)", "sequence (Q9UBN7 whole entry)": "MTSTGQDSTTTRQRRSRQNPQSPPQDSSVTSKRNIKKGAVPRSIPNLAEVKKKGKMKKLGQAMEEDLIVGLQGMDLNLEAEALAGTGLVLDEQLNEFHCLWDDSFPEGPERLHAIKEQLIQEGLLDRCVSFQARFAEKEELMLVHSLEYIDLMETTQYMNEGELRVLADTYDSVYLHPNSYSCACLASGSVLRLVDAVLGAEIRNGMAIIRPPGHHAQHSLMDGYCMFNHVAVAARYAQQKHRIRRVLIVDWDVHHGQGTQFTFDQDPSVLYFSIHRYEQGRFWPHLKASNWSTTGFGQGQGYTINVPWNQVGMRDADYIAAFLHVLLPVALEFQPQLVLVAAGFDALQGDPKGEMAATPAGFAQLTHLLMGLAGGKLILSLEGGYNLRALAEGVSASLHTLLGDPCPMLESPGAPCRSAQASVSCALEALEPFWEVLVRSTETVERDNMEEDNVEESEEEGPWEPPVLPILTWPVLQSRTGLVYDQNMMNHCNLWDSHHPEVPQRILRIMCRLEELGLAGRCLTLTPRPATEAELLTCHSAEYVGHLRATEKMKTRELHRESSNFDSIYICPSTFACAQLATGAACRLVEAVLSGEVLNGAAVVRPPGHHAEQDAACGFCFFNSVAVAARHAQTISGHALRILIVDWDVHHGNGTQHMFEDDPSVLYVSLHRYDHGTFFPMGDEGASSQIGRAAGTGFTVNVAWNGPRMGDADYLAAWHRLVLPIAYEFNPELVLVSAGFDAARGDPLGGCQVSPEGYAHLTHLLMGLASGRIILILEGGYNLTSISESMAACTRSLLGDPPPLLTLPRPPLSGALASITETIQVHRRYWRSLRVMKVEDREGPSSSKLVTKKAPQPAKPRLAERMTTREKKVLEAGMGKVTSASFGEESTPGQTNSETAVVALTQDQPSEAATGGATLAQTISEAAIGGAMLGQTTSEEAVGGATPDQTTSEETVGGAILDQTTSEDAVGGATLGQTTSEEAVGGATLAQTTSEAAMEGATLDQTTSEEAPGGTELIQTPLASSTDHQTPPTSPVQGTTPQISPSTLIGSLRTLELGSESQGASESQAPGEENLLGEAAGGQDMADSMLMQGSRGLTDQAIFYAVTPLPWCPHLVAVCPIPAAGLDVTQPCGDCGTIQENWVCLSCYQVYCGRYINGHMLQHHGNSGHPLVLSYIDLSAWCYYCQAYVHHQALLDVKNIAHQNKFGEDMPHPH", "assay": "HDAC6 biochemical fluorescent activity assay", "details": "substrate Arg-His-Lys-Lys(Ac)"}, "[2]": {"target": "Human HDAC5 (Homo sapiens (Human), UniProt Q9UQL6)", "sequence (Q9UQL6 whole entry)": "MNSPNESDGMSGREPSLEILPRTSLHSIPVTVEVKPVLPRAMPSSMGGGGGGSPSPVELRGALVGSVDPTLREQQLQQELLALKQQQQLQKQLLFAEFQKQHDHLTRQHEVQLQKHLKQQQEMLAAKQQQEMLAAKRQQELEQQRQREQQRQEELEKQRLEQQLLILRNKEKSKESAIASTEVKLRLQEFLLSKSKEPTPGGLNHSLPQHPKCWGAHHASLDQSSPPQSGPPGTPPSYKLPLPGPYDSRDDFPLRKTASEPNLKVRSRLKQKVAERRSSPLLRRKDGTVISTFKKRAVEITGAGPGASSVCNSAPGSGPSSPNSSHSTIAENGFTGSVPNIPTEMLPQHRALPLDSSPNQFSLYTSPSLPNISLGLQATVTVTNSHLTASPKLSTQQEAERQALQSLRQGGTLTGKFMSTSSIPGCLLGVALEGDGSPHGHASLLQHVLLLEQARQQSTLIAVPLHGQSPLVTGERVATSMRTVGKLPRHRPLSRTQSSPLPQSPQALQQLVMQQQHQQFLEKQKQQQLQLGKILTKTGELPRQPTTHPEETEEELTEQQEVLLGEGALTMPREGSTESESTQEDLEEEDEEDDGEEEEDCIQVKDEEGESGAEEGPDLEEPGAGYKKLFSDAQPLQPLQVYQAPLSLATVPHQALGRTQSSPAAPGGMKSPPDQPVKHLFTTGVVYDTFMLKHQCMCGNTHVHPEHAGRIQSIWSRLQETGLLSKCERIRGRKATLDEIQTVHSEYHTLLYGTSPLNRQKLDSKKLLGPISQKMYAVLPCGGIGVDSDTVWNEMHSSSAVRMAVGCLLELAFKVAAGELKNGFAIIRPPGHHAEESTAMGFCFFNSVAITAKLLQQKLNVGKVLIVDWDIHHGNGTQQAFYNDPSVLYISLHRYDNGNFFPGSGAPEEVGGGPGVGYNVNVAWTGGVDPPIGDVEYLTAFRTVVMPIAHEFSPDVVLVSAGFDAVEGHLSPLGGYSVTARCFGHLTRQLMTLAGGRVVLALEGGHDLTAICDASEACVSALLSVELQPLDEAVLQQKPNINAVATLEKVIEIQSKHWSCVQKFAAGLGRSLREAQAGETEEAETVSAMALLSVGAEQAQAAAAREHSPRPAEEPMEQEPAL", "assay": "HDAC5 biochemical fluorescent activity assay"}, "[3]": {"target": "Human HDAC8 (Homo sapiens (Human), UniProt Q9BY41)", "sequence (Q9BY41 whole entry)": "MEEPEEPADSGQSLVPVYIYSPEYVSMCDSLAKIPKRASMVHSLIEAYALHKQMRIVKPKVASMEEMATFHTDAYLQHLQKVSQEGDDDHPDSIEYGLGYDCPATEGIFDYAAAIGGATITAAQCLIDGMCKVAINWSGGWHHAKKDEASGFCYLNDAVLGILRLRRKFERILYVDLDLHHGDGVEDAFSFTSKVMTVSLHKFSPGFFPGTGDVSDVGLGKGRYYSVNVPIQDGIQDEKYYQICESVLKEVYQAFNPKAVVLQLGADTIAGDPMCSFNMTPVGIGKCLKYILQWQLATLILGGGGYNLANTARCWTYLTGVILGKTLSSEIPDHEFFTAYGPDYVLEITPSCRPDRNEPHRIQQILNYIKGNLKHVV", "assay": "HDAC8 biochemical fluorescent activity assay", "details": "substrate Arg-His-Lys(Ac)-Lys(Ac)"}, "[4]": {"target": "Human HDAC2 (Homo sapiens (Human), UniProt Q92769)", "sequence (Q92769 whole entry)": "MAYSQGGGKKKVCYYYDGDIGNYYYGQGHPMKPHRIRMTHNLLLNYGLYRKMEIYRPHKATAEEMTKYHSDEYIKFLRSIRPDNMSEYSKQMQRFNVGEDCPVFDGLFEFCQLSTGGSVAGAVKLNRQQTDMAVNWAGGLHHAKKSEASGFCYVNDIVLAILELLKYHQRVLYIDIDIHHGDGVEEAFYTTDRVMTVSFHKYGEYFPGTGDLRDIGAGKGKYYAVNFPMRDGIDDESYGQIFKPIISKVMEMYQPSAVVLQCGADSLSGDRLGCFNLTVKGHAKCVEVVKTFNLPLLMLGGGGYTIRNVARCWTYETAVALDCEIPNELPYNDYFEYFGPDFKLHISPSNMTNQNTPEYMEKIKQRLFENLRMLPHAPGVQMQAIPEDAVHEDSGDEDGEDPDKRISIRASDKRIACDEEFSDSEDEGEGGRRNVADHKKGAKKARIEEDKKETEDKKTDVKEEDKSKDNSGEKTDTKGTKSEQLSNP", "assay": "HDAC2 biochemical fluorescent activity assay", "details": "substrate Arg-His-Lys-Lys(Ac)"}, "[5]": {"target": "Human HDAC10 (Homo sapiens (Human), UniProt Q969S8)", "sequence (Q969S8 1-481)": "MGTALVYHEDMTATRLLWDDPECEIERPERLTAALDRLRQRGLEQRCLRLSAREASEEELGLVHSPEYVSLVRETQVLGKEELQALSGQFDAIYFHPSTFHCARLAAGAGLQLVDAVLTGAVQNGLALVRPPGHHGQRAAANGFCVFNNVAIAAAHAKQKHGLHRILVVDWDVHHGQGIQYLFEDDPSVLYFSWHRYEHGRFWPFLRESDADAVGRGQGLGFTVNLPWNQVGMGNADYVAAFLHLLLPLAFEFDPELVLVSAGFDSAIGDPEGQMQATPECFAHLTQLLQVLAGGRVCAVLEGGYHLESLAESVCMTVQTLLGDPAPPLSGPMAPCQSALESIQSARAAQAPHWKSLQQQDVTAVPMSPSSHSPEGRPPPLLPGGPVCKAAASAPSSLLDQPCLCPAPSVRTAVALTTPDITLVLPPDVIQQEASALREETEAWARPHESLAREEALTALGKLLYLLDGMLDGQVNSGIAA", "assay": "HDAC10 biochemical fluorescent activity assay", "details": "substrate Arg-His-Lys-Lys(Ac)"}, "[6]": {"target": "Human HDAC11 (Homo sapiens (Human), UniProt Q96DB2)", "sequence (Q96DB2 whole entry)": "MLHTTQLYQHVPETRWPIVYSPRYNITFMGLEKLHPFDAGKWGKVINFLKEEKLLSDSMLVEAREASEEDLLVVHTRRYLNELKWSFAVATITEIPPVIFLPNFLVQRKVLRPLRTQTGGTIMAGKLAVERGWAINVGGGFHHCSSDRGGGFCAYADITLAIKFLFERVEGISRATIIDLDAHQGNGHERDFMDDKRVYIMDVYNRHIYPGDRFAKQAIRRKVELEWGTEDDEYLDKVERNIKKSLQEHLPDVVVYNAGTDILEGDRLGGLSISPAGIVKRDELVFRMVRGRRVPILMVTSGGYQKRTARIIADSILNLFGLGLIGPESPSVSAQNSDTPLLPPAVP", "assay": "HDAC11 biochemical fluorescent activity assay", "details": "substrate Arg-His-Lys-Lys(Ac)"}, "[7]": {"target": "Human HDAC1 (Homo sapiens (Human), UniProt Q13547)", "sequence (Q13547 whole entry)": "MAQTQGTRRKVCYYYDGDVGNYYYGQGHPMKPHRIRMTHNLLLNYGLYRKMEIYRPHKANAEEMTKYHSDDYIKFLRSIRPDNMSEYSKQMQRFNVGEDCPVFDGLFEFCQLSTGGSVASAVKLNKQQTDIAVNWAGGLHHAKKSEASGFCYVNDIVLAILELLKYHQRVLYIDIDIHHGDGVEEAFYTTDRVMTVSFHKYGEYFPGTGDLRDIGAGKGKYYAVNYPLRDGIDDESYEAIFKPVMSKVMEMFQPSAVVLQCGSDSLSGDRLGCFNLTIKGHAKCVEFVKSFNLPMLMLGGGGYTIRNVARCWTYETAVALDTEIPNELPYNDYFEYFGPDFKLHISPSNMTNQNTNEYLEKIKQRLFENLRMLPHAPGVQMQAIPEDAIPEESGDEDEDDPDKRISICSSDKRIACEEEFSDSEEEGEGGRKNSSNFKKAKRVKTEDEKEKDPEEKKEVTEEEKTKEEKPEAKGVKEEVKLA", "assay": "HDAC1 biochemical fluorescent activity assay", "details": "substrate Arg-His-Lys-Lys(Ac)"}}, "note": "pIC50: −log10 of the molar value."}
{"smiles": "O=C(NO)c1ccc(Cn2sc3ncccc3c2=O)cc1", "note": "[RBC-3001-A, N-hydroxy-4-((3-oxoisothiazolo[5,4-b]pyridin-2(3H)-yl)methyl)benzamide]", "values": [{"measurement": "pIC50", "setting": "[1]", "value": 9.02}, {"measurement": "pIC50", "setting": "[2]", "value": 6.29}, {"measurement": "pIC50", "setting": "[3]", "value": 7.57}, {"measurement": "pIC50", "setting": "[4]", "value": 5.27}, {"measurement": "pIC50", "setting": "[5]", "value": 5.37}, {"measurement": "pIC50", "setting": "[6]", "value": 5.55}, {"measurement": "pIC50", "setting": "[7]", "value": 6.76}]}
